Data taken from patent publication US20230167155A1, “COMPOSITIONS AND METHODS” (KING'S COLLEGE LONDON, priority 2020, published 2023).

Experiments:
PAR1 = molecular target: T1, PAR1 (Homo sapiens, UniProt P25116); set-up: host or cells: patients; conditions: patients with stable atherosclerosis; cited from earlier work
T1 sequence (P25116 22-425): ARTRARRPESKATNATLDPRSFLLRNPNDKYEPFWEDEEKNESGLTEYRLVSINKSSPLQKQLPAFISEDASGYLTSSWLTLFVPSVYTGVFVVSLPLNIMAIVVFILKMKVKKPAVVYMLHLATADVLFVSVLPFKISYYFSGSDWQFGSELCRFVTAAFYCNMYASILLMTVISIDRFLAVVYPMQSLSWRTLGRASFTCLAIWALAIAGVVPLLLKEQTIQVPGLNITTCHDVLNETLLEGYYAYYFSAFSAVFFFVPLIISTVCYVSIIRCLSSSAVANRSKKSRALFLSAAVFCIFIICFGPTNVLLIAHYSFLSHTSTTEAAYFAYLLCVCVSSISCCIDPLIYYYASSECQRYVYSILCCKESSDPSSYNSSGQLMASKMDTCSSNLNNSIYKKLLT

ApoE−/− mice [1] = experiment: Regression of established atheroma, weekly IV injections (Oil Red O en face, aortic root); assay type: in vivo, mouse
Method: For all atherosclerosis work, male ApoE−/− mice, from the age of 6-weeks, were fed with a high fat diet (HFD) consisting 35 kcal % fat, 1.25% cholesterol, and 0.5% cholic acid (Special Diet Services, Essex UK). Aortas were transplanted 2 weeks after starting the HFD, using a sleeve anastomosis technique described previously^11. Briefly, a 5 mm of the segment of the infrarenal donor aorta, flushed with 300 μl of saline containing 50 U of heparin, was transplanted into ApoE−/− recipient abdomen aortas (N=6 per group). Blood flow was confirmed by direct inspection after removal of the clamps. Mice were fed a HFD for 6-12 weeks post-transplantation before the experiment was terminated (Suppl FIG. 1A). To assess prevention of atheroma, mice (n=6 per group) received a single injection of PTL060 or controls by tail vein, and the experiments terminated 1-3 weeks later (Suppl FIG. 1B). For regression experiments, baseline groups (n=6) were fed a HFD to the age of 22 weeks before the mice were sacrificed. Experimental or control groups (n=3-6 per group) received weekly injections by tail vein for 3-6 weeks, beginning at age of 22 weeks before the experiments were terminated when mice were 25-28 weeks old (Suppl FIG. 1C).
Atherosclerotic lesions were evaluated as previously described^11. Simply, the entire length of the aorta was perfused with PBS, dissected using a dissecting microscope, longitudinally opened and stained with Oil Red O (ORO) solution (Sigma, UK) for 30 minutes, before being photographed with a digital camera (DSC-W320, Sony, Japan). The total aortic area and lesional area were measured by using Image J. Aortas from every animal were assessed. To assess lesions in the aortic sinus, hearts were embedded in paraffin, sectioned through the aortic root and incubated with elastin/van Gieson stain using the Accustain™ Elastin Stain kit (Sigma). Sections were examined on an Olympus U-ULH optical microscope (Olympus Optical Co. Ltd, Tokyo, Japan). Atheromatous lesional and total aortic root area was determined using Image-Pro Plus TM software version 4.0 (Media Cybernetics, Silver Spring, USA). At least three random sections were examined from each mouse in all groups.

MIF = experiment: Vessel wall chemokine (MIF, CCL2) expression after IV injection, immunofluorescence; assay type: in vivo, mouse; conditions: single IV injection, PTL060 or equimolar dose
Method: Immunohistology of frozen cross sections were prepared and examined as previously described^11. Briefly, isolated tissues were snap-frozen and embedded in OCT compound (VWR International, Dorset, UK), sectioned at 5 μm thickness and fixed in methanol at −20° C. Frozen sections were immersed in 1% bovine serum albumin-phosphate-buffered saline (BSA-PBS) for 30 minutes and then incubated overnight at 4° C. with one or more of the following antibodies: rabbit polyclonal antibody to CD68, iNOs, CD206, TNFα, MIF, CCR7 ABCA1 (all from Abcam, Cambridge, UK), or hirudin (Biobyt, Cambridge, UK) or CCL2 (Lifespan BioScience, Inc., WA 98121, USA); goat polyclonal antibody to CD31 (Santa Cruz Biotechnology, Texas 75220, USA); rat anti-mouse CD68, CD11b (Serotec, Oxford, United Kingdom), CD31, IFNγ (BD Bioscience Pharmingen, Oxford, United Kingdom), Ly-6G (BioLegend, London, UK), IL-10 (Abcam) or biotinylated anti-HLL (RICS-2)^14; mouse anti-CCR2 (Abcam). […] Quantification of staining was achieved by expressing the area of positive staining as a ratio of the total lesion area, calculated using Image-Pro Plus TM, version 4.0. All quantification was performed by members of the team blinded to the identity of the sections. […] To detect macrophage-derived foam cells, frozen sections of aortic sinus were analysed by a combination of ORO staining and CD68 immunostaining. […]

ApoE−/− mice [2] = conditions: 22 week old animals, daily treatment for 6 weeks, clinically relevant doses; cited from earlier work
[3] = test system: patients with stable atherosclerotic cardiovascular disease; conditions: addition to aspirin; cited from earlier work
TNFα, IFNγ, MIF and CCL2 = experiment: Plasma cytokines and chemokines by ELISA; assay type: in vivo, mouse; conditions: HFD, weekly IV for 6 weeks, equimolar to PTL060 10 μg/g
Method: Anticoagulated whole blood (EDTA 30 mM pH8) was separated into plasma and cells by centrifugation (14,000 g for 10 mins). Plasma TNFα, IFN-γ, MIF and CCL2 were detected using separate specific ELISA kits (R&D Systems, Abingdon, UK) according to the manufacturers' instructions. Total cholesterol, high-density lipoprotein and low-density lipoprotein were determined using kits from Cell Biolabs, and Tryglycerides with a kit from Abcam, (both Cambridge, UK) according to the manufacturer's protocol. Thrombin clotting times were measured in 3.2% trisodium citrated plasma according to the protocol of Ignjatovic^16. Briefly, 100 μl mouse plasma was incubated with 2.5 U of human thrombin in a total volume of 300 μl (Enzyme Research Laboratories (ERL), Swansea, UK) at 37° C., and the time for a clot to form was measured (n=6 per group). For some experiments plasma was further centrifuged (20,000 g for 10 mins) to minimise the presence of extracellular vesicles.
FIG. 18: Illustrating the systemic proinflammatory state that accompanies development of atherosclerosis in ApoE^−/− mice fed a high fat diet, and the impact of PTL032 on that inflammation, compared to PTL060 and controls. Cytokines (interferon-gamma TNFalpha) and chemokines (macrophage migration inhibitory factor, MIF and CCL2) measured by ELISA of plasma samples harvested from mice at the times indicated. HFD=high fat diet. […]

Compound: CCOC(=O)N[C@@H]1CC[C@@H]2[C@@H](C1)C[C@H]1C(=O)O[C@H](C)[C@H]1[C@H]2/C=C/c1ccc(-c2cccc(F)c2)cn1 [vorapaxar]
- risk of myocardial infarction (PAR1): reduce the risk of myocardial infarction

Compound: bivalirudin
- atheroma burden after weekly injections (ApoE−/− mice [1]; HFD from age 6 to 22 weeks, then weekly IV for 6 weeks, PTL060 10 μg/g or equimolar doses of controls): developed increasing atheroma burden equivalent to that seen in saline control mice
- suppression of vessel wall chemokine (MIF) expression (MIF): not

Compound: O=C(NC[C@H]1CN(c2ccc(N3CCOCC3=O)cc2)C(=O)O1)c1ccc(Cl)s1 [rivaroxaban]
- atheroma burden reduced by (ApoE−/− mice [2]): 25%
- deaths, strokes and myocardial infarction [3]: fewer deaths, strokes and myocardial infarction

Compound: [Myr2]-KSSKSPSKKDDKKPGDC(S—S—CH2-CH2-Phe-Cha-Cha-Arg-Lys-Pro-Asn-Asp-Lys-NH2)NH2 [PTL032]
- animals with atherosclerotic plaques essentially completely eliminated (ApoE−/− mice [1]; HFD 16 weeks, then PTL032 7 μg/g weekly IV for 6 weeks): 4 out of the 6
- regression of atherosclerosis in direct comparison with PTL060 (ApoE−/− mice [1]; equimolar doses (PTL032 7 μg/g, PTL060 10 μg/g), weekly IV 6 weeks): considerably better regression of atherosclerosis than PTL060
- plasma chemokines and cytokines (IFNγ, TNFα, MIF, CCL2) (TNFα, IFNγ, MIF and CCL2): suppression of important chemokines and cytokines, almost back to levels seen in very young mice
